Legend:
SLC26A7 [1] = biological target: T1, SLC26A7 (Mus musculus, UniProt Q8R2Z3, F233L/S639T); conditions: 25 mM Cl- added to the medium
T1 sequence (Q8R2Z3 1-656 F233L/S639T): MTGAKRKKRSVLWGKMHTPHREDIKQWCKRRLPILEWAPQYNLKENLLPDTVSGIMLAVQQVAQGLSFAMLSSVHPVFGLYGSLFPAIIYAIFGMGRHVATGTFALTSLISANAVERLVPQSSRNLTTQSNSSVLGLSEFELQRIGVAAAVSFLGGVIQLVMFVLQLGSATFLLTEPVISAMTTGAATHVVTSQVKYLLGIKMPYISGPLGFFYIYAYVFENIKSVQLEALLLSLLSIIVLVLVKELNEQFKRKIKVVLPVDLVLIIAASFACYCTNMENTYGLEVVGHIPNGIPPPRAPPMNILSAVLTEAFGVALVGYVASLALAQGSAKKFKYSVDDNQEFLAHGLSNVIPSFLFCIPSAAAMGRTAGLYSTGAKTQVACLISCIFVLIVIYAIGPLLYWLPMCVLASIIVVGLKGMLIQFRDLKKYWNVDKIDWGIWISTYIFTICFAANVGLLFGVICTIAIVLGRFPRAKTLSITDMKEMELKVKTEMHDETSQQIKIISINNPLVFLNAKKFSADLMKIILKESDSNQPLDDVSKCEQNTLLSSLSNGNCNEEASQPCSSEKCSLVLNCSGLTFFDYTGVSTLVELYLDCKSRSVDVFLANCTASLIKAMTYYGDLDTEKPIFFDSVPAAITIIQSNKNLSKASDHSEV
Method: (§1) Oocytes expressing SLC26A2, SLC26A7, or SLC26A9, or control oocytes (H2O) were incubated in medium containing ^35SO4^2− for one hour. (−), Cl^−-free medium; (+), 25 mM Cl^− added to the medium; hr, hour.
(§2) Full-length mouse SLC26A7 and SLC26A9 cDNAs were cloned into the Xenopus expression vector pGEMHE (Liman et al., 1992). SLC26A6 and SLC26A2 constructs were also prepared for use as controls in transport assays (Example 7). Expression constructs were linearized, and cRNA was transcribed in vitro using T7 RNA polymerase and a […] MMACHINE® transcription kit (Ambion, Inc. of Austin, Tex., United States of America). Defolliculated oocytes were injected with 25 nl to 50 nl of water or with a solution containing cRNA at a concentration of 0.5 μg/μl (12.5 ng to 25 ng per oocyte) using a Nanoliter-2000 injector (WPI Instruments of Sarasota, Fla., United States of America). Oocytes were incubated at 17° C. in 50% Leibovitz's L-15 media supplemented with penicillin/streptomycin (1000 units/ml) and glutamine for 2-3 days for uptake assays.
(§3) For sulphate uptake assays, oocytes were pre-incubated for 20 minutes in chloride-free uptake medium (100 mM NMDG gluconate, 2 mM potassium gluconate, 1 mM calcium gluconate, 1 mM magnesium gluconate, 10 mM HEPES-Tris, pH 6.0 or pH 7.5 as indicated), followed by a 60-minute period for uptake in the same medium supplemented with 1 mM K2^35SO4 (40 μCi/ml). The cells were then washed three times in uptake buffer with 5 mM cold K2SO4 to remove tracer activity in the extracellular fluid. The oocytes were dissolved individually in 10% SDS, and tracer activity was determined by scintillation counting. Uptake of chloride, formate, and oxalate was assayed using the same chloride-free uptake solutions, substituting 8.3 mM ^36Cl, 500 μM [^14C]oxalate, or 50 μM [^14C]formate for labeled sulphate. Each uptake experiment included 12-18 oocytes in each experimental group, and results were reported as means±SEM. […]

SLC26A9 [2] = biological target: T2, SLC26A9 (Mus musculus, UniProt Q8BU91, G332D/L540F); conditions: 25 mM Cl- added to the medium
T2 sequence (Q8BU91 1-790 G332D/L540F): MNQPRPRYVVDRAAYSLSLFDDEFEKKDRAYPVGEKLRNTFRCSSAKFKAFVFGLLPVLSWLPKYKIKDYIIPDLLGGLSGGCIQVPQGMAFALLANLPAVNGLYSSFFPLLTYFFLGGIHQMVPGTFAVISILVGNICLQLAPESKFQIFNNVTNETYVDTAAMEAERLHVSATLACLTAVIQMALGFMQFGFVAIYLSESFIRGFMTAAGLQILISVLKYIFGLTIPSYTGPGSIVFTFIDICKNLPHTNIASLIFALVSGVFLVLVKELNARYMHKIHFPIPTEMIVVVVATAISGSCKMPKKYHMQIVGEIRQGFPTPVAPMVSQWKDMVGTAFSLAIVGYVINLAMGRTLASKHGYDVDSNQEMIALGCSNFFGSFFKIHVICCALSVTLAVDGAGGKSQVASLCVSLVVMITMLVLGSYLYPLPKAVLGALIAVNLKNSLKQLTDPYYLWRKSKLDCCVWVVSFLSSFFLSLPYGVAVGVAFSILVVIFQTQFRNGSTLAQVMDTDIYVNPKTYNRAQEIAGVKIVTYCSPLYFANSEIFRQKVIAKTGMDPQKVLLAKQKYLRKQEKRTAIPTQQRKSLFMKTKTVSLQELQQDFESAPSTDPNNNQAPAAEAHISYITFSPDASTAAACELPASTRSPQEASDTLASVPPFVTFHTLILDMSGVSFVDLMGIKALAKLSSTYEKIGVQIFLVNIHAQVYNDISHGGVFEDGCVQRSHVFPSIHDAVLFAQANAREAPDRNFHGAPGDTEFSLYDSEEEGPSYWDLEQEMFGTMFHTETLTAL
Method: as §1, §2, §3

SLC26A2 = conditions: 25 mM Cl- added to the medium
Method: as §1, §2, §3

SLC26A9 [3] = biological target: T2, SLC26A9; test: 36Cl- uptake (Cl-Cl exchange) in SLC26A9-injected Xenopus oocytes; assay type: cell-based; parameters: Full-length mouse SLC26A7 and SLC26A9 cDNAs were cloned into the Xenopus expression vector pGEMHE; expressed in transfected cells; host or cells: Xenopus laevis oocytes injected with cRNA transcribed in vitro from pGEMHE; conditions: 1 mM DIDS, pH 6.0
Method: FIG. 3B is a bar graph that depicts DIDS inhibition of ^36Cl^− uptake (pmol/oocyte/h) in SLC26A9injected oocytes (Slc26a9) and water-injected control oocytes (H2O). Oocytes were incubated during the pre-uptake period and uptake period at either pH 7.4 (open bars), pH 6.0 (black bars), or at pH 6.0 in the presence of 1 mM DIDS (grey bars). H, hour.
FIG. 3C is a bar graph that depicts a lack of cis-inhibition of Cl^−-Cl^− exchange in oocytes expressing SLC26A9 or in control oocytes (H2O). Oocytes were incubated in medium containing ^36Cl^− for one hour in the absence (control) or presence of 25 mM of the indicated anions.

SLC26A7 [4] = biological target: T1, SLC26A7; test: 36Cl- uptake in SLC26A7-injected Xenopus oocytes; assay type: cell-based; parameters: Full-length mouse SLC26A7 and SLC26A9 cDNAs were cloned into the Xenopus expression vector pGEMHE; expressed in transfected cells; host or cells: Xenopus laevis oocytes injected with cRNA transcribed in vitro from pGEMHE; conditions: 1 mM DIDS, pH 6.0, isotonic and hypotonic conditions
Method: FIG. 3A is a bar graph that depicts ^36Cl^− uptake (pmol/oocyte/h) as a function of extracellular osmolality and pH in SLC26A7-injected oocytes (A7) and water injected control oocytes (H2O). Oocytes were incubated during the pre-uptake period and uptake period at varying osmolaltiy at either pH 7.4 (open bars), pH 6.0 (black bars), or at pH 6.0 in the presence of 1 mM DIDS (grey bars). ISO, isotonic osmolality, 210 mOsm/kg; HYPO, hypotonic osmolality, 120 mOsm/kg; HYPER, hypertonic osmolality, 300 mOsm/kg; h, hour.

SMILES: Cl [Cl^−, chloride]
- effect of extracellular Cl- on 35SO4 2- uptake in SLC26A7-injected oocytes (SLC26A7 [1]): without activating
- effect of extracellular Cl- on 35SO4 2- uptake in SLC26A9-injected oocytes (SLC26A9 [2]): without activating
- effect of extracellular Cl- on 35SO4 2- uptake by SLC26A2 (SLC26A2): significantly inhibited

SMILES: O=S(=O)(O)c1cc(N=C=S)ccc1C=Cc1ccc(N=C=S)cc1S(=O)(=O)O [DIDS, 4,4′-diisothiocyanatostilbene-2,2′-disulfonic acid]
- DIDS sensitivity of Cl-Cl exchange mediated by SLC26A9 (SLC26A9 [3]): moderately sensitive
- DIDS sensitivity of SLC26A7 36Cl- uptake activity (SLC26A7 [4]): modestly DIDS-sensitive

Source: patent publication US20050176945A1, “Cloning and characterization of slc26a7 and slc26a9 anion exchangers” (priority 2002, published 2005)
